Data on three compounds can be found in patent publication US11717508B2, “Compounds, compositions, and methods for inhibiting bacterial growth” (priority 2016, dated 2023).

Structures are written as SMILES. Read-outs that look alike come from different tables or passages of the source.

Experiment [1] deals with Mtb CDC1551. Description: microbe, parasite or virus in culture. The conditions noted are these: Mycobacterium tuberculosis, CDC1551, read-out: reduction of viability relative to DMSO treated control.
In experiment [2] the test system is Mtb Erdman. The experiment is described as follows: microbe, parasite or virus in culture. As to conditions: Mycobacterium tuberculosis, 240 h, read-out: reduction of Mtb viability in the presence of 5 μM INH relative to cultures not treated with INH.
Experiment [3] concerns TAG accumulation. It counts as cell-based, Mycobacterium tuberculosis.
For experiment [4], the target named is DosT (Mycobacterium tuberculosis, UniProt P9WGK1). It counts as biochemical.
DosT, sequence (P9WGK1 whole entry): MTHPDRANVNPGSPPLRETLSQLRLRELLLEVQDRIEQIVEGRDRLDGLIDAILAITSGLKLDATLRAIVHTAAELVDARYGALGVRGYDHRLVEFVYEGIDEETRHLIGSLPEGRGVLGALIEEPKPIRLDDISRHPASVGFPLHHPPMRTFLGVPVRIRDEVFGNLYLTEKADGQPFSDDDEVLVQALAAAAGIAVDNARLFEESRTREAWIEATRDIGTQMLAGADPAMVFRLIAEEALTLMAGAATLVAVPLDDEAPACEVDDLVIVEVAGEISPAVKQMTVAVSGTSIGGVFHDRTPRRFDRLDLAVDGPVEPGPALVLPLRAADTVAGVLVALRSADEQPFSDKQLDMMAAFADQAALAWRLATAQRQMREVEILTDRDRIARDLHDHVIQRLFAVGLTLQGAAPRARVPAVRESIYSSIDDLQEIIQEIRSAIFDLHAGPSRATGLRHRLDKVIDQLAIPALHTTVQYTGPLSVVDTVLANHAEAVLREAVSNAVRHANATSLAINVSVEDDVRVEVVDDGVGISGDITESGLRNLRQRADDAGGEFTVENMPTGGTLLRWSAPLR

With `C[C@@H]1CC(C)(C)C[C@]2(C1)NC(=O)NC2=O` (racemic) [HC102A, 7,7,9-trimethyl-1,3-diazaspiro[4.5]decane-2,4-dione], in experiment [1], the inhibition at 10 µM was roughly 50%. Also, the inhibition at 40 µM in experiment [2] was roughly 30%. Moreover, in experiment [3] (CDC1551, 40 μM, 6 days), the “reduction in TAG accumulation” value came to 67%. Further, the “effect on redox status of DosT heme” value in experiment [4] (UV-visible spectra) was “no impact on the redox status”.
In the case of `O=C(Nc1cccc(O)c1)c1cccc(NC(=O)c2cccs2)c1` [HC103A, N-[3-[(3 hydroxyphenyl)carbamoyl]phenyl]thiophene-2-carboxamide], in experiment [1], the inhibition at 10 µM is roughly 50%. For the same compound, in experiment [2], the inhibition at 40 µM is roughly 30%. In experiment [3], the “reduction in TAG accumulation” value came out at 56%. The “effect on redox status of DosT heme” value in experiment [4] is “no impact on the redox status”.
As to `C[C@@H]1CC[C@H]2[C@@H](C)C(=O)O[C@@H]3O[C@]4(C)CC[C@@H]1[C@]32OO4` [HC101A, artemisinin, reference compound], the inhibition at 10 µM in experiment [1] is roughly 50%. The inhibition at 40 µM in experiment [2] is roughly 30%. The “reduction in TAG accumulation” value in experiment [3] (CDC1551, 40 μM, 6 days) is on record as 74%. For the same compound, the “concentration at which artemisinin modulates DosT heme / inhibits DosT” value in experiment [4] (DTN-reduced DosT) was found to be 50 µM.
